Results published in ChEMBL document CHEMBL4393689, “Discovery of fluorescent coumarin-benzo[b]thiophene 1, 1-dioxide conjugates as mitochondria-targeting antitumor STAT3 inhibitors” (Eur J Med Chem, 2019).
pIC50: −log10 of the molar value. The source made the active and inactive calls. No cut-off for these calls is given here.

Columns and labels:
HCT-116 = test: Antiproliferative activity against human HCT116 cells assessed as reduction in cell viability incubated for 48 hrs by MTT assay; format: functional, cell-based; conditions: HCT-116, 48 h
HepG2 [1] = test: Potency index, ratio of IC50 of BTP to ratio of IC50 of compound for antiproliferative activity against human HepG2 cells assessed as reduction in cell viability incubated for 48 hrs by MTT assay; format: functional
MDA-MB-231 [2] = test: Induction of apoptosis in human MDA-MB-231 cells assessed as early apoptotic cells at 1 uM incubated for 24 hrs by annexinV-FITC and propidium iodide staining based flow cytometric analysis (reference value: 3.2%); format: functional
MDA-MB-231 [3] = test: Induction of apoptosis in human MDA-MB-231 cells assessed as necrotic cells at 4 uM incubated for 24 hrs by annexinV-FITC and propidium iodide staining based flow cytometric analysis (reference value: 0.8%); format: functional
4T1 = test: Antitumor activity against mouse 4T1 cells implanted in BALB/c mouse assessed as reduction in tumor volume at 10 mg/kg, ip for 14 days; format: functional; conditions: 4T1, ip, 336 h
[4] = molecular target: Signal transducer and activator of transcription 3 (Homo sapiens) (UniProt P40763); test: Inhibition of STAT3 in human MDA-MB-231 cells assessed as decrease in cyclin D1 protein expression incubated for 24 hrs by Western blot analysis; format: cell-based
Chain of Signal transducer and activator of transcription 3 (Homo sapiens) (P40763 whole entry): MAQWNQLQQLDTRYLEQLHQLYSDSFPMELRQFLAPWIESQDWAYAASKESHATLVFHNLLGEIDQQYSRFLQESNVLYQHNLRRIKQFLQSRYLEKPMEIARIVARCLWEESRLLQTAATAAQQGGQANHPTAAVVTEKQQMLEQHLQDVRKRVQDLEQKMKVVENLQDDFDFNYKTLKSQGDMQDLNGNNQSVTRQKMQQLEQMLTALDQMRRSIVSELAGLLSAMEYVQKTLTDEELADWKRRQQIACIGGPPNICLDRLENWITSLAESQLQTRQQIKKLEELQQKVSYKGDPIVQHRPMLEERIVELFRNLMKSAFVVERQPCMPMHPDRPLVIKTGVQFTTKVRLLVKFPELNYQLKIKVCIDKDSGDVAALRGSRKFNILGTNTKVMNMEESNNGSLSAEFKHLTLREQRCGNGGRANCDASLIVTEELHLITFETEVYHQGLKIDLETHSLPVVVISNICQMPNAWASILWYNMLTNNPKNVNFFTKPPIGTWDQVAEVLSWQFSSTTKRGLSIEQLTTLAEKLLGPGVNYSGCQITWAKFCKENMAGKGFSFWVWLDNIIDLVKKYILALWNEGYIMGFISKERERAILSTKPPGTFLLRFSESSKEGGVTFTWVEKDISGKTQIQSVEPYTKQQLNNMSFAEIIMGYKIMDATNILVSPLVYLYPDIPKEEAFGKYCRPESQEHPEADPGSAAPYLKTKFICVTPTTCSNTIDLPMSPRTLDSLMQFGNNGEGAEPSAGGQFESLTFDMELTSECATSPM

[5] = molecular target: Proto-oncogene tyrosine-protein kinase Src (Homo sapiens) (UniProt P12931); test: Inhibition of Src in human MDA-MB-231 cells assessed as reduction in Src phosphorylation at 1 to 4 uM incubated for 24 hrs by Western blot analysis; format: cell-based
Chain of Proto-oncogene tyrosine-protein kinase Src (Homo sapiens) (P12931 2-536 limits assumed): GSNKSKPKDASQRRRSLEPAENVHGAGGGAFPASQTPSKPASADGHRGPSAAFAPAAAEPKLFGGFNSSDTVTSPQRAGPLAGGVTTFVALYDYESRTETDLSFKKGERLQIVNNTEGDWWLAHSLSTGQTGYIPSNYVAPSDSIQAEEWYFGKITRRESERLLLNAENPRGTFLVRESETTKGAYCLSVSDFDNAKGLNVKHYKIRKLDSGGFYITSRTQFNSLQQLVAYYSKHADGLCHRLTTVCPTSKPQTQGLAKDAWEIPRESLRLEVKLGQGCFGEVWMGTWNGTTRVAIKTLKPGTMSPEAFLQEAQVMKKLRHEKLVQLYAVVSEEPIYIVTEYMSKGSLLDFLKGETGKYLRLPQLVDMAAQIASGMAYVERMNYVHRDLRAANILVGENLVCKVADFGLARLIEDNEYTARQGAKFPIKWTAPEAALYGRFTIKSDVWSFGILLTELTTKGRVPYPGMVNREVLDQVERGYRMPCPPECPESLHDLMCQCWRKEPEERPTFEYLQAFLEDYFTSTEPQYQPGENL

[6] = molecular target: Signal transducer and activator of transcription 3 (Homo sapiens) (UniProt P40763); test: Inhibition of STAT3 in human MDA-MB-231 cells assessed as decrease in Bcl2 protein expression incubated for 24 hrs by Western blot analysis; format: cell-based
L02 = test: Cytotoxicity against human LO2 cells assessed as reduction in cell viability incubated for 48 hrs by MTT assay; format: cell-based; conditions: L02, 48 h
[7] = molecular target: T1, Signal transducer and activator of transcription 1-alpha/beta (Homo sapiens) (UniProt P42224); test: Inhibition of STAT1 in human MDA-MB-231 cells assessed as decrease in STAT1 phosphorylation at Y701 residue at 1 to 4 uM incubated for 24 hrs by Western blot analysis; format: cell-based
T1 sequence (whole entry): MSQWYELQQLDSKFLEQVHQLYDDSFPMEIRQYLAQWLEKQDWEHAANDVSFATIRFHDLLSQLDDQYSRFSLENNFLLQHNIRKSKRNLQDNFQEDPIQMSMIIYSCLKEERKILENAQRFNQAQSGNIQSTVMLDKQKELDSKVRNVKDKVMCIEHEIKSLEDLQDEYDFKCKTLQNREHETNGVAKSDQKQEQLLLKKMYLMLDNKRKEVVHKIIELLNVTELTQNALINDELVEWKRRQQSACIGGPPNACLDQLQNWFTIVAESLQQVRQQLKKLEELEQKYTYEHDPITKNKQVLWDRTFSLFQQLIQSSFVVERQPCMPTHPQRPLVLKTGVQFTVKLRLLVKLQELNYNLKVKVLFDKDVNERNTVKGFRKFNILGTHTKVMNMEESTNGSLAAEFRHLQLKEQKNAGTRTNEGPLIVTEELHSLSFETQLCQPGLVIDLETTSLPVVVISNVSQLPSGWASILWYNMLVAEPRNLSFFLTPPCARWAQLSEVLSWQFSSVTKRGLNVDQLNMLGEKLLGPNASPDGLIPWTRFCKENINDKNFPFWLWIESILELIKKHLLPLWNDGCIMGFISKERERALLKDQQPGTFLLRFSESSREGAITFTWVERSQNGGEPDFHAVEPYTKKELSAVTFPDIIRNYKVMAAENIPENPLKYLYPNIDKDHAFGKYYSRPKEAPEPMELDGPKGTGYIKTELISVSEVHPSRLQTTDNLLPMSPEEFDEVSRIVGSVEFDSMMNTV

[8] = Drug accumulation in mitochondria of human MCF7 cells at 5 uM incubated for 60 mins by mitotracker red staining based confocal microscopy; format: ADME; conditions: mcf7, 1 h
HepG2 [9] = test: Antiproliferative activity against human HepG2 cells assessed as reduction in cell viability incubated for 48 hrs by MTT assay; format: functional, cell-based; conditions: HepG2, 48 h
[10] = molecular target: Tyrosine-protein kinase JAK2 (Homo sapiens) (UniProt O60674); test: Inhibition of JAK2 in human MDA-MB-231 cells assessed as reduction in JAK2 phosphorylation at 1 to 4 uM incubated for 24 hrs by Western blot analysis; format: cell-based
Chain of Tyrosine-protein kinase JAK2 (Homo sapiens) (O60674 whole entry): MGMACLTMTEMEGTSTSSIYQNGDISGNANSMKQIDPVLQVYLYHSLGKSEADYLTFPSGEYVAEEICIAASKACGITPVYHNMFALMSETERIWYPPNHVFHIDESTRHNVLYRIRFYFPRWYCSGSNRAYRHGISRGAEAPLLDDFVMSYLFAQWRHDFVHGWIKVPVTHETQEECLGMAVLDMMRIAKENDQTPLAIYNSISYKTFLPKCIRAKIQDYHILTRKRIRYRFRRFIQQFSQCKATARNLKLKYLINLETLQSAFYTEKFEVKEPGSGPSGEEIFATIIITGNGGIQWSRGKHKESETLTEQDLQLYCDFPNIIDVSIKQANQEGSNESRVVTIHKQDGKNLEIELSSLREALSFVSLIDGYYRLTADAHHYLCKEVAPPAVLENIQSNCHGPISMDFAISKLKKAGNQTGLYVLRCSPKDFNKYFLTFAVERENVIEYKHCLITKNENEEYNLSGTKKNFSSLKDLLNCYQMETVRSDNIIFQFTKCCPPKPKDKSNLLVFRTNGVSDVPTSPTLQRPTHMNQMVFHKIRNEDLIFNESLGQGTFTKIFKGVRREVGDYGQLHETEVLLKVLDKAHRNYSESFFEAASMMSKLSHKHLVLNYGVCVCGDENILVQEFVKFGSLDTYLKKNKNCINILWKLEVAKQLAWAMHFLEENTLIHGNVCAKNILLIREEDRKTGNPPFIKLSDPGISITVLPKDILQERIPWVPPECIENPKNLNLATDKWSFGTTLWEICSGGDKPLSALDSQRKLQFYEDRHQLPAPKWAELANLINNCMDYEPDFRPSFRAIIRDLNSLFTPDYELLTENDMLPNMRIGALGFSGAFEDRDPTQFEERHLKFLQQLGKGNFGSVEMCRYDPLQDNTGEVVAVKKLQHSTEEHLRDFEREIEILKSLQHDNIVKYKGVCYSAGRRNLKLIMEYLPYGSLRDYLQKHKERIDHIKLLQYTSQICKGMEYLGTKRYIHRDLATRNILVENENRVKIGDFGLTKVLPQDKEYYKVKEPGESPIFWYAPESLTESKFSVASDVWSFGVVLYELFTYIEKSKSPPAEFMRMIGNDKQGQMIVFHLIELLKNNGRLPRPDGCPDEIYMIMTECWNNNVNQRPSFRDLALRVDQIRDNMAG

MDA-MB-231 [11] = test: Induction of apoptosis in human MDA-MB-231 cells assessed as early apoptotic cells at 2 uM incubated for 24 hrs by annexinV-FITC and propidium iodide staining based flow cytometric analysis (reference value: 3.2%); format: functional
MDA-MB-231 [12] = test: Induction of apoptosis in human MDA-MB-231 cells assessed as late apoptotic cells at 1 uM incubated for 24 hrs by annexinV-FITC and propidium iodide staining based flow cytometric analysis (reference value: 1.0%); format: functional

## CCN(CC)c1ccc2cc(C(=O)N3CCN(C(=O)C4=Cc5c(Br)cccc5S4(=O)=O)CC3)c(=O)oc2c1
HCT-116
  pIC50: 5.72
HepG2 [1]
  Ratio IC50: 4.6 - 19
MDA-MB-231 [2]
  Activity: 5.4%
MDA-MB-231 [3]
  Activity: 2.1%
4T1
  inhibition in vivo at 10 mg/kg: 52.3%
[4]
  inhibition: Dose-dependent effect
[5]
  inhibition: inactive
[6]
  inhibition: Dose-dependent effect
L02
  pIC50: 4.45
[7]
  inhibition: inactive
[8]
  Drug uptake: Active
HepG2 [9]
  pIC50: 5.54
[10]
  inhibition: inactive
MDA-MB-231 [11]
  Activity: 7.4%
MDA-MB-231 [12]
  Activity: 1.2%
